Measurements as given in PMC11673756, “Urolithin A Protects Hepatocytes from Palmitic Acid-Induced ER Stress by Regulating Calcium Homeostasis in the MAM” (Biomolecules, 2024).

Target: T1, CCDC47 (Coiled-Coil Domain Containing 47) (Homo sapiens, UniProt Q96A33)
T1 construct: endogenous CCDC47 in HepG2 cells
T1 sequence (Q96A33 21-483): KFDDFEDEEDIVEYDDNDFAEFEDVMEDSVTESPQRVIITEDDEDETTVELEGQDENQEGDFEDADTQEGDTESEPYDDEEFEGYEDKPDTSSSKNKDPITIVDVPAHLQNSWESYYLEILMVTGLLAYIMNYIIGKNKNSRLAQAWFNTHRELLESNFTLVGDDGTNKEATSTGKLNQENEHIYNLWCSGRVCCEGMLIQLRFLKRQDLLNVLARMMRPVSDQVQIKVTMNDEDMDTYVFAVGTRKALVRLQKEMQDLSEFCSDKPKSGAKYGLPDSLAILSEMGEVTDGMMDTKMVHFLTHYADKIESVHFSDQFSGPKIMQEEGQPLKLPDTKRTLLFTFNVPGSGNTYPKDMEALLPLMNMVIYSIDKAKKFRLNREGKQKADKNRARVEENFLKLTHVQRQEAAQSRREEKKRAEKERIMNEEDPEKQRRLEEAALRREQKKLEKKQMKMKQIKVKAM
Assay: isothermal CETSA at […] °C
Assay type: cell-based

EC50: ~38 µM
Compound: O=c1oc2cc(O)ccc2c2ccc(O)cc12 [UA, Urolithin A]
